Legend:
Format in all cases: cell-based
[1] = biological target: T1, human TLR7 (Homo sapiens, UniProt Q9NYK1); assay: TLR7 inhibition reporter assay (HEK-Blue cells, SEAP reporter, gardiquimod stimulation); settings: HEK-Blue cells overexpressing human TLR7, SEAP reporter, gardiquimod 7.5 μM
T1 construct: host or cells: HEK-Blue cells (HEK293-derived reporter line)
T1 sequence (Q9NYK1 27-1049): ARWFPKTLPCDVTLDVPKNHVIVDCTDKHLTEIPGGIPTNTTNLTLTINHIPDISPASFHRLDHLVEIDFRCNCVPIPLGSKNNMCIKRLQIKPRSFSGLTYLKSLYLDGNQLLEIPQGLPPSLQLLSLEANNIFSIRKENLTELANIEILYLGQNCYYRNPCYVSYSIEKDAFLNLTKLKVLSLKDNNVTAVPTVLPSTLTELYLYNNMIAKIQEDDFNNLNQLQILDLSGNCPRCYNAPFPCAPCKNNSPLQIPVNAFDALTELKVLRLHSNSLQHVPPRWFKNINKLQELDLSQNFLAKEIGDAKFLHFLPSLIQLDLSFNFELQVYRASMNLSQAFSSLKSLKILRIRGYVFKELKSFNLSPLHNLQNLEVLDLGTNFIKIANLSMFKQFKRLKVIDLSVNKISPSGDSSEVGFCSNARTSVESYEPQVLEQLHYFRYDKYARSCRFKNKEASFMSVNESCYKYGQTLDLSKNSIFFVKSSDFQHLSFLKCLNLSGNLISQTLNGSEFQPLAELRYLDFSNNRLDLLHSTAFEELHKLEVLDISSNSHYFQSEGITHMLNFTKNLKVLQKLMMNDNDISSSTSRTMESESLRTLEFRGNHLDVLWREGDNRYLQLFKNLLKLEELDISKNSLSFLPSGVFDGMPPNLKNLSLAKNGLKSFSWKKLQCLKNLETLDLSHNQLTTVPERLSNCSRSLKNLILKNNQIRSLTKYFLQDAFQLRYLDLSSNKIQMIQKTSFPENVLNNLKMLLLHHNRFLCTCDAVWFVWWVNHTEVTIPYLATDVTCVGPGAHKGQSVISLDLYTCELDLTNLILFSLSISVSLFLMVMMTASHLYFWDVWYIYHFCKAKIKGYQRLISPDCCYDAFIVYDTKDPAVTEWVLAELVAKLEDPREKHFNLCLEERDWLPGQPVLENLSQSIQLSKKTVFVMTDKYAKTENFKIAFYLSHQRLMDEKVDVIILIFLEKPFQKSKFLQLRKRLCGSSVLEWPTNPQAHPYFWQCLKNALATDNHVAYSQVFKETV
In short: (§1)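 Cells seeded per well (15000 TLR7, 20,000 TLR8, 25,000 TLR9); compound added over 0.05 nM–50 μM for 30 min at room temperature; agonist added (TLR7 gardiquimod 7.5 μM, TLR8 R848 15.9 μM, TLR9 ODN2006 5 nM); 22 h at 37 °C; SEAP measured; percent inhibition calculated.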

[2] = biological target: T2, human TLR8 (Homo sapiens, UniProt Q9NR97); assay: TLR8 inhibition reporter assay (HEK-Blue cells, SEAP reporter, R848 stimulation); settings: HEK-Blue cells overexpressing human TLR8, SEAP reporter, R848 15.9 μM
T2 construct: host or cells: HEK-Blue cells (HEK293-derived reporter line)
T2 sequence (Q9NR97 27-1041): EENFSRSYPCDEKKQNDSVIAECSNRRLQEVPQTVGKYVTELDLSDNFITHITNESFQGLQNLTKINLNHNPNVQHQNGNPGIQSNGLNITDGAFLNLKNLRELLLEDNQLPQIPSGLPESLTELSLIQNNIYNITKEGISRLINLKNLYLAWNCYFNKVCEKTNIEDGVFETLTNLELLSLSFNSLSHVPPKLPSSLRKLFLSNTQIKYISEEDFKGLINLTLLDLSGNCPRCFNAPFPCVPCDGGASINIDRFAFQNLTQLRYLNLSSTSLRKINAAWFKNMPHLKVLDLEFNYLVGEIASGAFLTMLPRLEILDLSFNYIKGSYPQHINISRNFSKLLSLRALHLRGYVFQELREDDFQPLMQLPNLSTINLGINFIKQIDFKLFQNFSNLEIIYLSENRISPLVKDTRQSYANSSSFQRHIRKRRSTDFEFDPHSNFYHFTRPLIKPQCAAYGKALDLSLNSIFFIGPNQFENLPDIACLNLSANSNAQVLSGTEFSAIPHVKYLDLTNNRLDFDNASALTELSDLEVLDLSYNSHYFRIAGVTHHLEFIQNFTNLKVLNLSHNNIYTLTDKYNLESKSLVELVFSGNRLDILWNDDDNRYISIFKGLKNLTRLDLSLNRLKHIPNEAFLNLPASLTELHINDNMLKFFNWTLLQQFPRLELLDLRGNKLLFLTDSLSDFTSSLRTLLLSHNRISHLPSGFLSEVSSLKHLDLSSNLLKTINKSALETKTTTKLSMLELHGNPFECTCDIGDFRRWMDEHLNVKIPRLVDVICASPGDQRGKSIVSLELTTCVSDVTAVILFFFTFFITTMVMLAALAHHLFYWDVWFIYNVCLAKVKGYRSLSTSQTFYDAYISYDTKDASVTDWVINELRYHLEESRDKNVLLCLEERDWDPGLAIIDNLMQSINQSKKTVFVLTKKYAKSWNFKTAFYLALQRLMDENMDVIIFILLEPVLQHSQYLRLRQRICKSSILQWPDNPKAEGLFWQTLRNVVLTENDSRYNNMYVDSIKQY
In short: as §1

[3] = biological target: T3, human TLR9 (Homo sapiens, UniProt Q9NR96); assay: TLR9 inhibition reporter assay (HEK-Blue cells, SEAP reporter, ODN2006 stimulation); settings: HEK-Blue cells overexpressing human TLR9, SEAP reporter, ODN2006 5 nM
T3 construct: host or cells: HEK-Blue cells (HEK293-derived reporter line)
T3 sequence (Q9NR96 26-1032): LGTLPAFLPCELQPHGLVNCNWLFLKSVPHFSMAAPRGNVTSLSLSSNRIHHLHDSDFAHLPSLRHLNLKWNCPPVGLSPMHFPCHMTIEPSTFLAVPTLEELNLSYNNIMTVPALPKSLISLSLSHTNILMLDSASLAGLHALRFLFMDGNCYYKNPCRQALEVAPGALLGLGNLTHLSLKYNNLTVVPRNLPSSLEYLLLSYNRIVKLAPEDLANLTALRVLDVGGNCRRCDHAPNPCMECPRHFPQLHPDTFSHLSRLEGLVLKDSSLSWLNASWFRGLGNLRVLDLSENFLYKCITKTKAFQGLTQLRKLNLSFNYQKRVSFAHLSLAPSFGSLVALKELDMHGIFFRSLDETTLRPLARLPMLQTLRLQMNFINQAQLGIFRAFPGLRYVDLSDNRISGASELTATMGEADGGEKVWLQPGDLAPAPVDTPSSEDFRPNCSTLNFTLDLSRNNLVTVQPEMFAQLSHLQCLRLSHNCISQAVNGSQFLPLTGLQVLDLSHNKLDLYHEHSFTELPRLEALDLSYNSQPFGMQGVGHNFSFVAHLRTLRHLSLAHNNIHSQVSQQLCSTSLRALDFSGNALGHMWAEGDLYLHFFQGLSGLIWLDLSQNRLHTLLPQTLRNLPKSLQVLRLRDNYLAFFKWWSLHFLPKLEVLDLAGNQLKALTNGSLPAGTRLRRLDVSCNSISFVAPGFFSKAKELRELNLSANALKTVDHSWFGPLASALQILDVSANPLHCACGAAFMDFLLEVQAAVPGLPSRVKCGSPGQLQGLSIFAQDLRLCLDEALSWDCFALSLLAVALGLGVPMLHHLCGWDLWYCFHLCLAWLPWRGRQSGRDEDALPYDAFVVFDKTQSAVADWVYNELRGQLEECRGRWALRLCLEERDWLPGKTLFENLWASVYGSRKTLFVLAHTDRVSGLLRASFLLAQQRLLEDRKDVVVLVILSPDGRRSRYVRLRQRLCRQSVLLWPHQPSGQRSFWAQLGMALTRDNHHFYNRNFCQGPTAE
In short: as §1

Row | Compound | IC50 [1] | IC50 [2] | IC50 [3]
1 | COc1cc(-c2[nH]c3ccc(C4CCN(C(=O)CN(C)C)CC4)cc3c2C(C)C)nn2ncnc12 [Example 460, 2-(dimethylamino)-1-(4-(3-isopropyl-2-(8-methoxy-[1,2,4]triazolo[1,5-b]pyridazin-6-yl)-1H-indol-5-yl)piperidin-1-yl)ethan-1-one] | < 100 nM | < 100 nM | 1000 to 50000 nM
2 | Cc1cc(-c2[nH]c3ccc(C4CCN(CCCC(F)(F)F)CC4)cc3c2C(C)C)cn2nnnc12 [Example 963, 6-(3-isopropyl-5-(1-(4,4,4-trifluorobutyl)piperidin-4-yl)-1H-indol-2-yl)-8-methyltetrazolo[1,5-a]pyridine] | < 100 nM | < 100 nM | 1000 to 50000 nM
3 | CC(C)c1c(-c2ccnc3[nH]ncc23)[nH]c2cc(C(F)(F)F)c(C3CCN(CC4CCNC4)CC3)cc12 (stereo not drawn) [Example 851, 4-(3-isopropyl-5-(1-(pyrrolidin-3-ylmethyl)piperidin-4-yl)-6-(trifluoromethyl)-1H-indol-2-yl)-1H-pyrazolo[3,4-b]pyridine] | < 100 nM | 100 to 1000 nM | 100 to 1000 nM
4 | Cc1c(-c2ncc3[nH]ccc3n2)[nH]c2ccc(C3CCN(C4CCN(C(C)C)CC4)CC3)cc12 [Example 808, 2-(5-(1′-isopropyl-[1,4′-bipiperidin]-4-yl)-3-methyl-1H-indol-2-yl)-5H-pyrrolo[3,2-d]pyrimidine] | 1000 to 50000 nM | 1000 to 50000 nM | < 100 nM
5 | CCc1c(-c2ccnc3[nH]ncc23)[nH]c2ccc(C3CCNCC3F)cc12 (stereo not drawn) [Example 173, 4-(3-ethyl-5-(3-fluoropiperidin-4-yl)-1H-indol-2-yl)-1H-pyrazolo[3,4-b]pyridine] | 100 to 1000 nM | < 100 nM | 1000 to 50000 nM
6 | CC(C)c1c(-c2ccc3nnnn3c2)[nH]c2ccc(C3CCN(CC(=O)N(C)C)CC3)cc12 [Example 301, 2-(4-(3-isopropyl-2-(tetrazolo[1,5-a]pyridin-6-yl)-1H-indol-5-yl)piperidin-1-yl)-N,N-dimethylacetamide] | < 100 nM | 100 to 1000 nM | 1000 to 50000 nM
7 | CCc1c(-c2ccnc3[nH]ccc23)[nH]c2ccc(C3CCN(Cc4cccn4C)CC3)cc12 [Example 871, 4-(3-ethyl-5-(1-((1-methyl-1H-pyrrol-2-yl)methyl)piperidin-4-yl)-1H-indol-2-yl)-1H-pyrrolo[2,3-b]pyridine] | 100 to 1000 nM | < 100 nM | 1000 to 50000 nM
8 | CC(C)c1c(-c2ccn3nncc3c2)[nH]c2ccc(C3CCN(CC(=O)N(C)C)CC3)cc12 [Example 302, 2-(4-(2-([1,2,3]triazolo[1,5-a]pyridin-5-yl)-3-isopropyl-1H-indol-5-yl)piperidin-1-yl)-N,N-dimethylacetamide] | < 100 nM | 100 to 1000 nM | 1000 to 50000 nM
9 | Cc1cc2cc(-c3[nH]c4ccc(C5CCNCC5)cc4c3C(C)C)ccn2n1 [Example 145, 5-(3-isopropyl-5-(piperidin-4-yl)-1H-indol-2-yl)-2-methylpyrazolo[1,5-a]pyridine] | < 100 nM | 1000 to 50000 nM | 1000 to 50000 nM
10 | Cc1cc(-c2[nH]c3ccc(C4CCN(C(=O)CN5CCOCC5)CC4)cc3c2C(C)C)cn2nnnc12 [Example 476, 1-(4-(3-isopropyl-2-(8-methyltetrazolo[1,5-a]pyridin-6-yl)-1H-indol-5-yl)piperidin-1-yl)-2-morpholinoethan-1-one] | < 100 nM | < 100 nM | 1000 to 50000 nM
11 | Cc1cc(-c2[nH]c3ccc(C4CCN(C(=O)CCN5CCCCC5)CC4)cc3c2C(C)C)cn2nnnc12 [Example 629, 1-(4-(3-isopropyl-2-(8-methyltetrazolo[1,5-a]pyridin-6-yl)-1H-indol-5-yl)piperidin-1-yl)-3-(piperidin-1-yl)propan-1-one] | < 100 nM | < 100 nM | 1000 to 50000 nM
12 | CNC(=O)CN1CCC(c2ccc3[nH]c(-c4cc(C)c5nc(C)c(C)n5c4)c(C(C)C)c3c2)CC1 [Example 429, 2-(4-(3-isopropyl-2-(2,3,8-trimethylimidazo[1,2-a]pyridin-6-yl)-1H-indol-5-yl)piperidin-1-yl)-N-methylacetamide] | < 100 nM | 100 to 1000 nM | 100 to 1000 nM
13 | CC(C)c1c(-c2cc(N)nc3[nH]cnc23)[nH]c2ccc(C3CCNCC3)cc12 [Example 228, 7-(3-isopropyl-5-(piperidin-4-yl)-1H-indol-2-yl)-3H-imidazo[4,5-b]pyridin-5-amine] | < 100 nM | < 100 nM | 100 to 1000 nM
14 | Cc1cc(-c2[nH]c3ccc(C4CCN(C5COC5)CC4)cc3c2C(C)C)cc2cncn12 [Example 724, 7-(3-isopropyl-5-(1-(oxetan-3-yl)piperidin-4-yl)-1H-indol-2-yl)-5-methylimidazo[1,5-a]pyridine] | 100 to 1000 nM | 100 to 1000 nM | 1000 to 50000 nM

Reference: patent US11739098B2 (BRISTOL-MYERS SQUIBB COMPANY, priority 2017, dated 2023)
